Results as given in ChEMBL document CHEMBL1150078, “A Novel Class of Non-Peptidic Endothelin Antagonists Isolated from the Medicinal Herb Phyllanthus niruri” (J Nat Prod, 1995).
Calls of active or inactive are those of the source. The calls are words filed in the database; no cut-off is given here.

What was measured:
Assay type in all cases: cell-based
[1] = target: T1, Endothelin-1 receptor (Rattus norvegicus, UniProt P26684); assay: Displacement of [125I]endothelin-1 from ETA receptor in rat A10 cells by scintillation counting
T1 sequence (P26684 whole entry): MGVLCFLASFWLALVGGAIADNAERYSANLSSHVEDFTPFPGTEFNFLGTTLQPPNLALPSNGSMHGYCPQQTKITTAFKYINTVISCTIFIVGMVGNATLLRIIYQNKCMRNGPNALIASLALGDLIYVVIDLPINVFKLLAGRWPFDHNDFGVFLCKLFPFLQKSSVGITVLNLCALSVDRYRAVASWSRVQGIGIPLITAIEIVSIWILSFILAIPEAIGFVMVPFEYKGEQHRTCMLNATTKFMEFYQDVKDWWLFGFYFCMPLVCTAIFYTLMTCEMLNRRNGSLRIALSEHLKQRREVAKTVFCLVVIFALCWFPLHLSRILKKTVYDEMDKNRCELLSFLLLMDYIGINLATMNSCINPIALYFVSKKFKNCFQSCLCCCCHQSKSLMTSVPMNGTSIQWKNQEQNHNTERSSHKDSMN

[2] = target: T2, Endothelin receptor type B (Homo sapiens, UniProt P24530); assay: Displacement of [125I]endothelin-1 from human recombinant ETB receptor expressed in CHO cells
T2 sequence (P24530 whole entry): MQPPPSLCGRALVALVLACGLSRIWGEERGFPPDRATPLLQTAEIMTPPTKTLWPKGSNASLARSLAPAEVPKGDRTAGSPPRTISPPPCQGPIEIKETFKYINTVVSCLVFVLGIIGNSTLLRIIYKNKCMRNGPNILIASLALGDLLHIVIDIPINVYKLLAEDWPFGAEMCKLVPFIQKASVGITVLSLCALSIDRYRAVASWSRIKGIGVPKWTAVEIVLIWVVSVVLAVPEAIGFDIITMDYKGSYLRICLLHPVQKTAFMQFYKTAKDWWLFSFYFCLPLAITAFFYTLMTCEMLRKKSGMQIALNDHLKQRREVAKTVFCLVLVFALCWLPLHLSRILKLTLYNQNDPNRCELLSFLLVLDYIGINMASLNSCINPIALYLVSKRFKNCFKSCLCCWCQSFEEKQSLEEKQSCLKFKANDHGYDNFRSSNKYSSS

[3] = target: T3, Endothelin receptor type B (Homo sapiens) (UniProt P24530); assay: Activity at human recombinant ETB receptor expressed in CHO cells assessed as inhibition of endothelin-1-induced increase in extracellular acidification rate at 100 uM by microphysiometry
T3 sequence (whole entry): T2 sequence (P24530 whole entry)

[4] = target: T3, Endothelin receptor type B (Homo sapiens); assay: Activity at human recombinant ETB receptor expressed in CHO cells assessed as inhibition of endothelin-1-induced increase in extracellular acidification rate at 20 uM by microphysiometry
[5] = target: T4, Endothelin-1 receptor (Homo sapiens, UniProt P25101); assay: Displacement of [125I]endothelin-1 from human recombinant ETA receptor expressed in CHO cells
T4 sequence (P25101 whole entry): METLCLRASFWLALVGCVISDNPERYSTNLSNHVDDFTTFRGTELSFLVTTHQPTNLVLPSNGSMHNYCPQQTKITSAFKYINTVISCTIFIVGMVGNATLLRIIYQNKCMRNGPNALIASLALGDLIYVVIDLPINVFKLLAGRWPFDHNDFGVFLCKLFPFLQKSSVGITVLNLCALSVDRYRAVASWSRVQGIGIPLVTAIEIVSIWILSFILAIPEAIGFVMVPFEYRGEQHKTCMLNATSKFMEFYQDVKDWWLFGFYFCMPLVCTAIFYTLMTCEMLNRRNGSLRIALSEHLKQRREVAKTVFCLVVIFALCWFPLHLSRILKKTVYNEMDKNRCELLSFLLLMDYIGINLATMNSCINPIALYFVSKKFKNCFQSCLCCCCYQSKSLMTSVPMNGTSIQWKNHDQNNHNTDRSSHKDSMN

[6] = target: T5, Endothelin-1 receptor (Homo sapiens) (UniProt P25101); assay: Activity at human recombinant ETA receptor expressed in CHO cells assessed as inhibition of endothelin-1-induced increase in extracellular acidification rate at 100 uM by microphysiometry
T5 sequence (whole entry): T4 sequence (P25101 whole entry)

[7] = target: T5, Endothelin-1 receptor (Homo sapiens); assay: Activity at human recombinant ETA receptor expressed in CHO cells assessed as inhibition of endothelin-1-induced increase in extracellular acidification rate at 20 uM by microphysiometry

| Structure (SMILES) | IC50 [1] [µM] | IC50 [2] [µM] | Activity [3] | Activity [4] | IC50 [5] [µM] | inhibition [6] [%] | inhibition [7] [%] |
| --- | --- | --- | --- | --- | --- | --- | --- |
| COC[C@@H]1Cc2cc(OC)c3c(c2[C@H](c2ccc(OC)c(OC)c2)[C@H]1COC)OCO3 [HYPOPHYLLANTHIN] | 580 | > 500 | inactive | inactive | 40 | 39 | 28 |
| COC[C@H](Cc1ccc(OC)c(OC)c1)[C@H](COC)Cc1ccc(OC)c(OC)c1 [PHYLLANTHIN] | > 1000 | > 500 | – | – | > 1000 | – | – |
| COc1cc(C)c(OC)c2c1C[C@@H](C(=O)O)C[C@H]2c1ccccc1 | – | – | – | – | 160 | – | – |
| COC[C@@H]1Cc2cc3c(c(OC)c2[C@H](c2ccc(OC)c(OC)c2)[C@H]1COC)OCO3 [NIRTETRALIN] | 400 | > 500 | – | – | 75 | – | – |
